Tested on: Caenorhabditis elegans
Assay: C. elegans L1 nematicidal dose response in 96-well plates, 5 day visual score (Example 2; same procedure for Example 7, Table 3)
Assay type: in vivo
Set-up: key to 5 Day Visual Score V1 / 5 Day Visual Score V2 / 5 Day Visual Score V3 / 5 Day Visual Score V4 / 5 Day Visual Score V6 / 5 Day Visual Score V5 / Initial HTS Run Visual Score / Follow-up HTS Run Visual Score: Dead: only stiff L1s (no movement); Dead (L4): worms are dead, but at a later larval stage; majority of worms are L1 (based on size) worms move when plate is tapped; majority of worms are L2 (based on size); majority of worms are L3 (based on size); majority of worms are L4 (based on size); AD: majority of worms are adult; #AD: 5 adult worms or less; B!: sterile (0-25 progeny); B: low broodsize (25-100 progeny); ˜B: moderate broodsize (100-250 progeny); <: reduced broodsize (250-500 progeny); OK: no effect (˜1000+ progeny)
Details: Follow-up HTS run
Procedure, shortened: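 Scoring was by eye at 100× on day 5, after incubation at 20° C, of 20 C. elegans L1s per well fed 1% E. coli HB101 in NGM. Compound columns V1–V6 spanned 70 μM to 0.3 μM in 3-fold steps, with 1.4% DMSO in the top well and as control.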

Compound | Follow-up HTS Run % Run | Follow-up HTS Run mOD | Follow-up HTS Run Visual Score
CN(CCc1ccccc1)c1nc(NCc2ccc(C(F)(F)F)cc2)ns1 [compound 314] | 103% | 166 mOD | –
CCCCN(Cc1ccccc1)c1nc(NCc2ccc(C(F)(F)F)cc2)ns1 [compound 309] | 119% | 191 mOD | –
Fc1ccc(N2CCN(c3nc(NCc4c(F)cccc4F)ns3)CC2)cc1 [compound 296] | 109% | 175 mOD | L4
CCN(Cc1ccccc1)c1nc(N2CCN(c3ccc(F)cc3)CC2)ns1 [compound 237] | 117% | 189 mOD | –
CCOc1cc(CCNc2nsc(N3CCN(c4ccc(F)cc4)CC3)n2)ccc1OC [compound 267] | 99% | 160 mOD | Dead
CN(CCc1ccccc1)c1nc(NC2CCCCCCCCCCC2)ns1 [AKC 335] | 82% | 132 mOD | Dead
CCN(Cc1ccccc1)c1nc(NCc2ccc(F)cc2F)ns1 [compound 292] | 116% | 187 mOD | L4/AD/B!
Fc1ccc(N2CCN(c3nc(NCc4ccccc4)ns3)CC2)cc1 [compound 324] | 34% | 54 mOD | –
CCCCN(CCCCO)c1nc(N2CCN(c3c(C)cccc3C)CC2)ns1 [compound 220] | 75% | 121 mOD | Dead
CCOC(=O)CCN(Cc1ccccc1)c1nc(N2CCN(c3ccc(F)cc3)CC2)ns1 [compound 238] | 122% | 197 mOD | L4/AD/B

Same assay, conditions: Initial HTS run

Compound | Initial HTS Run % Run | Initial HTS Run mOD | Initial HTS Run Visual Score
CN(CCc1ccccc1)c1nc(NCc2ccc(C(F)(F)F)cc2)ns1 [compound 314] | 106% | 117 mOD | –
CCCCN(Cc1ccccc1)c1nc(NCc2ccc(C(F)(F)F)cc2)ns1 [compound 309] | 106% | 117 mOD | L4/AD/B!
Fc1ccc(N2CCN(c3nc(NCc4c(F)cccc4F)ns3)CC2)cc1 [compound 296] | 96% | 106 mOD | L4/AD/B!-Few Eggs
CCN(Cc1ccccc1)c1nc(N2CCN(c3ccc(F)cc3)CC2)ns1 [compound 237] | 133% | 146 mOD | –
CCOc1cc(CCNc2nsc(N3CCN(c4ccc(F)cc4)CC3)n2)ccc1OC [compound 267] | 94% | 103 mOD | Dead
CN(CCc1ccccc1)c1nc(NC2CCCCCCCCCCC2)ns1 [AKC 335] | 104% | 114 mOD | Dead
CCN(Cc1ccccc1)c1nc(NCc2ccc(F)cc2F)ns1 [compound 292] | 110% | 121 mOD | –
Fc1ccc(N2CCN(c3nc(NCc4ccccc4)ns3)CC2)cc1 [compound 324] | 114% | 125 mOD | –
CCCCN(CCCCO)c1nc(N2CCN(c3c(C)cccc3C)CC2)ns1 [compound 220] | 95% | 105 mOD | 1AD/B!
CCOC(=O)CCN(Cc1ccccc1)c1nc(N2CCN(c3ccc(F)cc3)CC2)ns1 [compound 238] | 135% | 148 mOD | L4/Ad/B!

Same assay, conditions: dose response, dilution V1, 5 day

Compound | 5 Day Visual Score V1
CN(CCc1ccccc1)c1nc(NCc2ccc(C(F)(F)F)cc2)ns1 [compound 314] | L1
Fc1ccc(N2CCN(c3nc(NCc4ccccc4)ns3)CC2)cc1 [compound 324] | L1

Same assay, conditions: dose response, dilution V1, day 5

Compound | 5 Day Visual Score V1
CCCCN(Cc1ccccc1)c1nc(NCc2ccc(C(F)(F)F)cc2)ns1 [compound 309] | L1
Fc1ccc(N2CCN(c3nc(NCc4c(F)cccc4F)ns3)CC2)cc1 [compound 296] | Dead
CCN(Cc1ccccc1)c1nc(N2CCN(c3ccc(F)cc3)CC2)ns1 [compound 237] | L1
CCOc1cc(CCNc2nsc(N3CCN(c4ccc(F)cc4)CC3)n2)ccc1OC [compound 267] | Dead
CN(CCc1ccccc1)c1nc(NC2CCCCCCCCCCC2)ns1 [AKC 335] | Dead
CCCCN(CCCCO)c1nc(N2CCN(c3c(C)cccc3C)CC2)ns1 [compound 220] | Dead
CCOC(=O)CCN(Cc1ccccc1)c1nc(N2CCN(c3ccc(F)cc3)CC2)ns1 [compound 238] | L1

Same assay, conditions: dose response, dilution V2, 5 day

Compound | 5 Day Visual Score V2
CN(CCc1ccccc1)c1nc(NCc2ccc(C(F)(F)F)cc2)ns1 [compound 314] | L4#AD/B! and L1

Same assay, conditions: dose response, dilution V2, day 5

Compound | 5 Day Visual Score V2
CCCCN(Cc1ccccc1)c1nc(NCc2ccc(C(F)(F)F)cc2)ns1 [compound 309] | B (low broodsize (25-100 progeny))
CCN(Cc1ccccc1)c1nc(N2CCN(c3ccc(F)cc3)CC2)ns1 [compound 237] | L1
CCOc1cc(CCNc2nsc(N3CCN(c4ccc(F)cc4)CC3)n2)ccc1OC [compound 267] | L1
CN(CCc1ccccc1)c1nc(NC2CCCCCCCCCCC2)ns1 [AKC 335] | Dead
CCN(Cc1ccccc1)c1nc(NCc2ccc(F)cc2F)ns1 [compound 292] | ˜B (moderate broodsize (100-250 progeny))

Same assay, conditions: dose response, dilution V3, 5 day

Compound | 5 Day Visual Score V3
CN(CCc1ccccc1)c1nc(NCc2ccc(C(F)(F)F)cc2)ns1 [compound 314] | L1

Same assay, conditions: dose response, dilution V3, day 5

Compound | 5 Day Visual Score V3
CCCCN(Cc1ccccc1)c1nc(NCc2ccc(C(F)(F)F)cc2)ns1 [compound 309] | OK (no effect (˜1000+ progeny))
Fc1ccc(N2CCN(c3nc(NCc4c(F)cccc4F)ns3)CC2)cc1 [compound 296] | B (low broodsize (25-100 progeny))
CCN(Cc1ccccc1)c1nc(N2CCN(c3ccc(F)cc3)CC2)ns1 [compound 237] | L1
CCOc1cc(CCNc2nsc(N3CCN(c4ccc(F)cc4)CC3)n2)ccc1OC [compound 267] | < (reduced broodsize (250-500 progeny))
CN(CCc1ccccc1)c1nc(NC2CCCCCCCCCCC2)ns1 [AKC 335] | Dead
CCN(Cc1ccccc1)c1nc(NCc2ccc(F)cc2F)ns1 [compound 292] | OK (no effect (˜1000+ progeny))
CCCCN(CCCCO)c1nc(N2CCN(c3c(C)cccc3C)CC2)ns1 [compound 220] | ˜B (moderate broodsize (100-250 progeny))
CCOC(=O)CCN(Cc1ccccc1)c1nc(N2CCN(c3ccc(F)cc3)CC2)ns1 [compound 238] | < (reduced broodsize (250-500 progeny))

Same assay, conditions: dose response, dilution V4, 5 day

Compound | 5 Day Visual Score V4
Fc1ccc(N2CCN(c3nc(NCc4ccccc4)ns3)CC2)cc1 [compound 324] | OK (no effect (˜1000+ progeny))

Same assay, conditions: dose response, dilution V4, day 5

Compound | 5 Day Visual Score V4
CCCCN(Cc1ccccc1)c1nc(NCc2ccc(C(F)(F)F)cc2)ns1 [compound 309] | OK (no effect (˜1000+ progeny))
Fc1ccc(N2CCN(c3nc(NCc4c(F)cccc4F)ns3)CC2)cc1 [compound 296] | OK (no effect (˜1000+ progeny))
CCN(Cc1ccccc1)c1nc(N2CCN(c3ccc(F)cc3)CC2)ns1 [compound 237] | < (reduced broodsize (250-500 progeny))
CCOc1cc(CCNc2nsc(N3CCN(c4ccc(F)cc4)CC3)n2)ccc1OC [compound 267] | OK (no effect (˜1000+ progeny))
CCN(Cc1ccccc1)c1nc(NCc2ccc(F)cc2F)ns1 [compound 292] | OK (no effect (˜1000+ progeny))
CCCCN(CCCCO)c1nc(N2CCN(c3c(C)cccc3C)CC2)ns1 [compound 220] | OK (no effect (˜1000+ progeny))
CCOC(=O)CCN(Cc1ccccc1)c1nc(N2CCN(c3ccc(F)cc3)CC2)ns1 [compound 238] | < (reduced broodsize (250-500 progeny))

Same assay, conditions: dose response, dilution V5, 5 day

Compound | 5 Day Visual Score V5
Fc1ccc(N2CCN(c3nc(NCc4ccccc4)ns3)CC2)cc1 [compound 324] | < (reduced broodsize (250-500 progeny))

Same assay, conditions: dose response, dilution V5, day 5

Compound | 5 Day Visual Score V5
CCCCN(Cc1ccccc1)c1nc(NCc2ccc(C(F)(F)F)cc2)ns1 [compound 309] | OK (no effect (˜1000+ progeny))
Fc1ccc(N2CCN(c3nc(NCc4c(F)cccc4F)ns3)CC2)cc1 [compound 296] | OK (no effect (˜1000+ progeny))
CCN(Cc1ccccc1)c1nc(N2CCN(c3ccc(F)cc3)CC2)ns1 [compound 237] | OK (no effect (˜1000+ progeny))
CCOc1cc(CCNc2nsc(N3CCN(c4ccc(F)cc4)CC3)n2)ccc1OC [compound 267] | OK (no effect (˜1000+ progeny))
CCN(Cc1ccccc1)c1nc(NCc2ccc(F)cc2F)ns1 [compound 292] | OK (no effect (˜1000+ progeny))
CCCCN(CCCCO)c1nc(N2CCN(c3c(C)cccc3C)CC2)ns1 [compound 220] | OK (no effect (˜1000+ progeny))
CCOC(=O)CCN(Cc1ccccc1)c1nc(N2CCN(c3ccc(F)cc3)CC2)ns1 [compound 238] | OK (no effect (˜1000+ progeny))

Same assay, conditions: dose response, dilution V6, 5 day

Compound | 5 Day Visual Score V6
CN(CCc1ccccc1)c1nc(NCc2ccc(C(F)(F)F)cc2)ns1 [compound 314] | OK (no effect (˜1000+ progeny))
Fc1ccc(N2CCN(c3nc(NCc4ccccc4)ns3)CC2)cc1 [compound 324] | OK (no effect (˜1000+ progeny))

Same assay, conditions: dose response, dilution V6, day 5

Compound | 5 Day Visual Score V6
CCCCN(Cc1ccccc1)c1nc(NCc2ccc(C(F)(F)F)cc2)ns1 [compound 309] | OK (no effect (˜1000+ progeny))
Fc1ccc(N2CCN(c3nc(NCc4c(F)cccc4F)ns3)CC2)cc1 [compound 296] | < (reduced broodsize (250-500 progeny))
CCN(Cc1ccccc1)c1nc(N2CCN(c3ccc(F)cc3)CC2)ns1 [compound 237] | OK (no effect (˜1000+ progeny))
CCOc1cc(CCNc2nsc(N3CCN(c4ccc(F)cc4)CC3)n2)ccc1OC [compound 267] | OK (no effect (˜1000+ progeny))
CN(CCc1ccccc1)c1nc(NC2CCCCCCCCCCC2)ns1 [AKC 335] | OK (no effect (˜1000+ progeny))
CCN(Cc1ccccc1)c1nc(NCc2ccc(F)cc2F)ns1 [compound 292] | OK (no effect (˜1000+ progeny))
CCCCN(CCCCO)c1nc(N2CCN(c3c(C)cccc3C)CC2)ns1 [compound 220] | OK (no effect (˜1000+ progeny))
CCOC(=O)CCN(Cc1ccccc1)c1nc(N2CCN(c3ccc(F)cc3)CC2)ns1 [compound 238] | OK (no effect (˜1000+ progeny))

From patent US20020002171A1, “Materials and methods for killing nematodes and nematode eggs” (priority 2000, published 2002)
